{"source": "ChEMBL document CHEMBL4007504", "about": "“Docking, synthesis and antimalarial activity of novel 4-anilinoquinoline derivatives” (Bioorg Med Chem Lett, 2017)", "key": {"Plasmodium berghei": {"tested_on": "Plasmodium berghei", "assay": "Antimalarial activity against chloroquine-sensitive Plasmodium berghei infected in Swiss albino mouse assessed as chemosuppression at 200 mg/kg, po qd administered for 4 days by peter's test relative to control", "assay_type": "functional", "conditions": "96 h"}, "Ferriprotoporphyrin IX": {"biological_target": "Ferriprotoporphyrin IX", "assay": "Binding affinity to haematin assessed as inhibition of NP40-mediated beta-haematin formation after 4 hrs by pyridine-ferrochrome method"}, "Mus musculus": {"tested_on": "Mus musculus", "assay": "Toxicity in Swiss albino mouse at 2000 mg/kg, po", "assay_type": "organism-based", "conditions": "in vivo"}, "Plasmodium falciparum": {"tested_on": "Plasmodium falciparum", "assay": "Antimalarial activity against chloroquine-resistant Plasmodium falciparum W2 infected in human erythrocytes assessed as parasite growth inhibition after 48 hrs by YOYO1 probe-based flow cytometric method", "assay_type": "functional, cell-based", "conditions": "W2, 48 h"}}, "data": [{"smiles": "CCN(CC)CCCC(C)Nc1ccnc2cc(Cl)ccc12", "note": "(stereo not drawn) [CHLOROQUINE]", "values": [{"measurement": "inhibition in vivo at 200 mg/kg", "setting": "Plasmodium berghei", "result": 83, "unit": "%"}, {"measurement": "IC50", "setting": "Ferriprotoporphyrin IX", "result": 27.2, "unit": "µM"}]}, {"smiles": "CCCN(CCC)c1nc(Cl)nc(Nc2ccc(Nc3ccnc4cc(Cl)ccc34)cc2)n1", "values": [{"measurement": "inhibition in vivo at 200 mg/kg", "setting": "Plasmodium berghei", "result": 91.5, "unit": "%"}, {"measurement": "Activity", "setting": "Mus musculus", "result": "Non-Toxic"}, {"measurement": "IC50", "setting": "Plasmodium falciparum", "result": 0.008, "unit": "µM"}, {"measurement": "IC50", "setting": "Ferriprotoporphyrin IX", "result": 18.6, "unit": "µM"}]}, {"smiles": "Clc1ccc2c(Nc3ccc(Nc4nc(Cl)nc(N5CCOCC5)n4)cc3)ccnc2c1", "values": [{"measurement": "inhibition in vivo at 200 mg/kg", "setting": "Plasmodium berghei", "result": 97, "unit": "%"}, {"measurement": "Activity", "setting": "Mus musculus", "result": "Non-Toxic"}, {"measurement": "IC50", "setting": "Plasmodium falciparum", "result": 0.138, "unit": "µM"}, {"measurement": "IC50", "setting": "Ferriprotoporphyrin IX", "result": 21.1, "unit": "µM"}]}, {"smiles": "CN(C)c1nc(Cl)nc(Nc2ccc(Nc3ccnc4cc(Cl)ccc34)cc2)n1", "values": [{"measurement": "inhibition in vivo at 200 mg/kg", "setting": "Plasmodium berghei", "result": 95.2, "unit": "%"}, {"measurement": "Activity", "setting": "Mus musculus", "result": "Non-Toxic"}, {"measurement": "IC50", "setting": "Plasmodium falciparum", "result": 0.38, "unit": "µM"}, {"measurement": "IC50", "setting": "Ferriprotoporphyrin IX", "result": 29.7, "unit": "µM"}]}, {"smiles": "CCN(c1ccccc1)c1nc(Cl)nc(Nc2ccc(Nc3ccnc4cc(Cl)ccc34)cc2)n1", "values": [{"measurement": "inhibition in vivo at 200 mg/kg", "setting": "Plasmodium berghei", "result": 97, "unit": "%"}, {"measurement": "Activity", "setting": "Mus musculus", "result": "Non-Toxic"}, {"measurement": "IC50", "setting": "Plasmodium falciparum", "result": 0.22, "unit": "µM"}, {"measurement": "IC50", "setting": "Ferriprotoporphyrin IX", "result": 29.2, "unit": "µM"}]}, {"smiles": "Clc1ccc2c(Nc3ccc(Nc4nc(Cl)nc(N5CCNCC5)n4)cc3)ccnc2c1", "values": [{"measurement": "inhibition in vivo at 200 mg/kg", "setting": "Plasmodium berghei", "result": 94.8, "unit": "%"}, {"measurement": "Activity", "setting": "Mus musculus", "result": "Non-Toxic"}, {"measurement": "IC50", "setting": "Plasmodium falciparum", "result": 0.167, "unit": "µM"}, {"measurement": "IC50", "setting": "Ferriprotoporphyrin IX", "result": 23.7, "unit": "µM"}]}, {"smiles": "Nc1ccc(Nc2ccnc3cc(Cl)ccc23)cc1", "values": [{"measurement": "inhibition in vivo at 200 mg/kg", "setting": "Plasmodium berghei", "result": 85.9, "unit": "%"}, {"measurement": "Activity", "setting": "Mus musculus", "result": "Non-Toxic"}, {"measurement": "IC50", "setting": "Plasmodium falciparum", "result": 0.807, "unit": "µM"}, {"measurement": "IC50", "setting": "Ferriprotoporphyrin IX", "result": 32.5, "unit": "µM"}]}, {"smiles": "CN(c1ccccc1)c1nc(Cl)nc(Nc2ccc(Nc3ccnc4cc(Cl)ccc34)cc2)n1", "values": [{"measurement": "inhibition in vivo at 200 mg/kg", "setting": "Plasmodium berghei", "result": 91.1, "unit": "%"}, {"measurement": "Activity", "setting": "Mus musculus", "result": "Non-Toxic"}, {"measurement": "IC50", "setting": "Plasmodium falciparum", "result": 0.269, "unit": "µM"}, {"measurement": "IC50", "setting": "Ferriprotoporphyrin IX", "result": 23.7, "unit": "µM"}]}, {"smiles": "Clc1ccc2c(Nc3ccc(Nc4nc(Cl)nc(N5CCCCC5)n4)cc3)ccnc2c1", "values": [{"measurement": "inhibition in vivo at 200 mg/kg", "setting": "Plasmodium berghei", "result": 94.1, "unit": "%"}, {"measurement": "Activity", "setting": "Mus musculus", "result": "Non-Toxic"}, {"measurement": "IC50", "setting": "Plasmodium falciparum", "result": 0.118, "unit": "µM"}, {"measurement": "IC50", "setting": "Ferriprotoporphyrin IX", "result": 20.6, "unit": "µM"}]}, {"smiles": "CCN(CC)c1nc(Cl)nc(Nc2ccc(Nc3ccnc4cc(Cl)ccc34)cc2)n1", "values": [{"measurement": "inhibition in vivo at 200 mg/kg", "setting": "Plasmodium berghei", "result": 95.5, "unit": "%"}, {"measurement": "Activity", "setting": "Mus musculus", "result": "Non-Toxic"}, {"measurement": "IC50", "setting": "Plasmodium falciparum", "result": 0.268, "unit": "µM"}, {"measurement": "IC50", "setting": "Ferriprotoporphyrin IX", "result": 21.6, "unit": "µM"}]}, {"smiles": "CC(C)N(c1nc(Cl)nc(Nc2ccc(Nc3ccnc4cc(Cl)ccc34)cc2)n1)C(C)C", "values": [{"measurement": "inhibition in vivo at 200 mg/kg", "setting": "Plasmodium berghei", "result": 95.5, "unit": "%"}, {"measurement": "Activity", "setting": "Mus musculus", "result": "Non-Toxic"}, {"measurement": "IC50", "setting": "Plasmodium falciparum", "result": 0.902, "unit": "µM"}, {"measurement": "IC50", "setting": "Ferriprotoporphyrin IX", "result": "> 500", "unit": "µM"}]}, {"smiles": "Clc1ccc2c(Nc3ccc(Nc4nc(Cl)nc(NCc5ccccc5)n4)cc3)ccnc2c1", "values": [{"measurement": "inhibition in vivo at 200 mg/kg", "setting": "Plasmodium berghei", "result": 97, "unit": "%"}, {"measurement": "Activity", "setting": "Mus musculus", "result": "Non-Toxic"}, {"measurement": "IC50", "setting": "Plasmodium falciparum", "result": 0.123, "unit": "µM"}, {"measurement": "IC50", "setting": "Ferriprotoporphyrin IX", "result": 21.8, "unit": "µM"}]}, {"smiles": "O=[N+]([O-])c1ccc(Nc2nc(Cl)nc(Nc3ccc(Nc4ccnc5cc(Cl)ccc45)cc3)n2)cc1", "values": [{"measurement": "inhibition in vivo at 200 mg/kg", "setting": "Plasmodium berghei", "result": 97.4, "unit": "%"}, {"measurement": "Activity", "setting": "Mus musculus", "result": "Non-Toxic"}, {"measurement": "IC50", "setting": "Plasmodium falciparum", "result": 0.145, "unit": "µM"}, {"measurement": "IC50", "setting": "Ferriprotoporphyrin IX", "result": 23, "unit": "µM"}]}, {"smiles": "Clc1ccc2c(Nc3ccc(Nc4nc(Cl)nc(N5CCCC5)n4)cc3)ccnc2c1", "values": [{"measurement": "inhibition in vivo at 200 mg/kg", "setting": "Plasmodium berghei", "result": 97, "unit": "%"}, {"measurement": "Activity", "setting": "Mus musculus", "result": "Non-Toxic"}, {"measurement": "IC50", "setting": "Plasmodium falciparum", "result": 0.119, "unit": "µM"}, {"measurement": "IC50", "setting": "Ferriprotoporphyrin IX", "result": 28.1, "unit": "µM"}]}, {"smiles": "Clc1ccc2c(Nc3ccc(Nc4nc(Cl)nc(N(c5ccccc5)c5ccccc5)n4)cc3)ccnc2c1", "values": [{"measurement": "inhibition in vivo at 200 mg/kg", "setting": "Plasmodium berghei", "result": 97.4, "unit": "%"}, {"measurement": "Activity", "setting": "Mus musculus", "result": "Non-Toxic"}, {"measurement": "IC50", "setting": "Plasmodium falciparum", "result": 0.255, "unit": "µM"}, {"measurement": "IC50", "setting": "Ferriprotoporphyrin IX", "result": 24.9, "unit": "µM"}]}, {"smiles": "COc1ccccc1Nc1nc(Cl)nc(Nc2ccc(Nc3ccnc4cc(Cl)ccc34)cc2)n1", "values": [{"measurement": "inhibition in vivo at 200 mg/kg", "setting": "Plasmodium berghei", "result": 94.8, "unit": "%"}, {"measurement": "Activity", "setting": "Mus musculus", "result": "Non-Toxic"}, {"measurement": "IC50", "setting": "Plasmodium falciparum", "result": 0.145, "unit": "µM"}, {"measurement": "IC50", "setting": "Ferriprotoporphyrin IX", "result": 21, "unit": "µM"}]}, {"smiles": "C[C@@H]1CC[C@H]2[C@@H](C)C(=O)O[C@@H]3O[C@@]4(C)CC[C@@H]1[C@]32OO4", "note": "[ARTEMISININ]", "values": [{"measurement": "IC50", "setting": "Plasmodium falciparum", "result": 0.015, "unit": "µM"}]}]}
